The target in one experiment is T1, RORγt (Homo sapiens, UniProt P51449).
T1 construct: The plasmid of pFN26A-RORγt-LBD and pG14.35 (Promega, Cat. No. E1370) were co-transfected into HEK 293 cells; expressed in transfected cells; host or cells: HEK 293 cells (Cat. No. GNHu18)
T1 sequence (P51449 269-508 limits assumed): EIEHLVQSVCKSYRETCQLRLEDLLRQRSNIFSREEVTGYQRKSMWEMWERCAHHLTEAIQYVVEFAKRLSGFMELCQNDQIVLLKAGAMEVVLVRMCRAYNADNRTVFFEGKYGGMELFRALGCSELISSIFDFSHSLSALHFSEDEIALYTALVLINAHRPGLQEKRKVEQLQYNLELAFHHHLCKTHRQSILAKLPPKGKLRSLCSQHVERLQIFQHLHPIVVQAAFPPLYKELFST
Kind of experiment: RORγt cellular reporter gene detection assay.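 For Cellular Reporter Assay Amax: Ursolic Acid added as 5 µL of 20 µM medium per well.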 The class given is cell-based. Conditions: 24 hrs; for EC50: HEK 293 cells co-transfected with pFN26A-RORγt-LBD and pG14.35, in presence of antagonist Ursolic acid, top concentration 50 μM; for Cellular Reporter Assay Amax: upper activation limit, HEK 293 cells, in presence of antagonist Ursolic acid. The procedure: II. RORγt Cellular Reporter Gene Detection Assay
In this experiment, RORγt Reporter Gene Detection method was used to evaluate the activation and specificity of compounds to RORγt in cells. The plasmid of pFN26A-RORγt-LBD and pG14.35 (Promega, Cat. No. E1370) were co-transfected into HEK 293 cells (Cat. No. GNHu18). The efficacy of compounds was evaluated with the presence of an antagonist Ursolic acid (Selleck, Cat. No. S2370-100 mg). The specific experimental process was as follow: • 1. The plasmids-co-transfected cells were inoculated into a 96-well plate (Corning, Cat. No 3610) in a fresh DMEM medium (Gibco, cat. No. 1773536) containing 10% fetal bovine serum (Gibco, Cat. No. 10099-141) at 30000 cells/40 μL/well; • 2. 5 μL of medium containing 20 μM Ursolic acid was added thereto; • 3. The dose effect was evaluated by a 4-fold dilution of the test compound starting from 50 μM; • 4. 5 μL of medium containing a compound concentration of 10-fold of its final test concentration was added; • 5. After the cells were incubated at 37° C. and 5% CO2 for 24 hrs, 50 μL of detection reagent was added to detect firefly fluorescence using PerkinElmerEnVision, and 50 μL of the second detection reagent was added to detect sea kidney fluorescence; • 6. A four-parameter curve simulated in GraphPad Prism was used to determine the concentration for 50% activation (EC50) and the upper activation limit (Amax) for each compound.
(In general: Reporter assays use an easily measured gene product as a stand-in for the process of interest.)

In the next experiment the target is T2, RORγt-LBD (Homo sapiens, UniProt P51449).
T2 sequence (P51449 269-508 limits assumed): T1 sequence (P51449 269-508 limits assumed)
Briefly: Time-resolved fluorescence resonance energy-transfer assay (TR-FRET), co-activator peptide recruitment. The format is biochemical. Also on record: TR-FRET Biochemical Amax: unit not given here. The settings on record: for EC50: His-RORγt-LBD 30 nM, SRC peptide 500 nM, agonistic activity, averages of one or more measurements, read-out: TR-FRET Biochemical EC50/; for TR-FRET Biochemical Amax: upper activation limit, His-RORγt-LBD, SRC peptide. From the text:
I. Time-Resolved Fluorescence Resonance Energy-Transfer Assay (TR-FRET)
This experiment was a screening experiment for RORγt nuclear receptor agonists based on TR-FRET technology. When His-labeled RORγt-LBD receptor binds to receptor agonists, it may increase the recruitment of biotin-labeled co-activator peptides. Europium-His-RORγt-LBD is indirectly labeled by donor (Eu) by binding to Eu-anti-His antibody. Once Eu is activated by an energy source (such as flashlight or laser), the energy will be transferred to the co-activator indirectly labeled by allophycocyanin by binding of allophycocyanin-streptavidin and biotin-labeled co-activator. • 1. 10× buffer (500 mM Tris-HCl, 500 mM KCl, and 10 mM Na-EDTA) was prepared, pH value was adjusted to 7.0. The buffer was stored at 4° C. for later use and was restored to normal temperature before experiment; • 2. The 10× buffer was diluted to 1× with pure water. Final concentration of 0.01% Triton X-100 and 1 mM DTT (dithiothreitol) were added to prepare the assay buffer; • 3. DMSO was used to prepare 1000× compound stock solution. The compound solution was serial-diluted in 5-fold for 7 concentrations from the top concentration of 1000 nM/10000 nM. Then the 10× compound solution was prepared with assay buffer. An amount of 2 μL was aliquoted into the 20 μL system; • 4. 5×RORγt-LBD protein solution was unfreezed, and a solution of 5× concentration was prepared with assay buffer to obtain a final concentration of 30 nM. The whole operation was carried out on ice; • 5. 5×SRC peptide was unfreezed, and a solution of 5× concentration was prepared with assay buffer to obtain a final concentration of 500 nM. The whole operation was carried out on ice; • 6. 4 μL/well of RORγt-LBD receptor was added into the testing wells of 384-well plate, and the same amount of assay buffer was added to the control wells of non-RORγt-LBD group; • 7. 2 μL of compound was added into each well of 384-well plate; • 8. 4 μL of SRC peptide was added into each well of 384-well plate; • 9. 2× Eu-anti-6× His/APC-Streptavidin was diluted with Lance detection buffer to a final concentration of 0.25 nM and 5 nM, respectively, and then 10 μL of 2× Eu-anti-6× His/APC-Streptavidin was added into each well of 384-well plate; • 10. The mixed solution was incubated at 4° C. overnight; • 11. On the morning of the next day, the 384-well plate was incubated at room temperature for 1 hr. Then the corresponding signal values were read with PerkinElmer EnVision at a wavelength of 665/615 […]. The agonistic activity of the corresponding compound was calculated with Graphpad Prism 7.0 software.

Where only a bound is given, the exact number is not on record here.

Consider `CC1(C)C=C(c2ccc3c(c2)N(S(=O)(=O)c2cccc(C(F)(F)F)c2)C[C@@H]2CN(C4COC4)CCN32)CC(C)(C)O1` [Example 34, (S)-3-(oxetan-3-yl)-8-(2,2,6,6-tetramethyl-3,6-dihydro-2H-pyran-4-yl)-6-((3-(trifluoro-methyl)phenyl)sulfonyl)-2,3,4,4a,5,6-hexahydro-1H-pyrazino[1,2-a]quinoxaline], for which, on RORγt, the EC50 worked out at 0.156 µM and the “Cellular Reporter Assay Amax” value amounted to 1.7. Besides, at RORγt-LBD, the EC50 was 0.00391 µM and the “TR-FRET Biochemical Amax” value stood at 1.11.

For the compound `C/C(=C\c1ccc2c(c1)N(S(=O)(=O)c1cccc(C(F)(F)F)c1)C[C@@H]1CN(CC(=O)OC(C)C)CCN21)c1c(F)cccc1Cl` [Example 48, isopropyl (S,E)-2-(8-(2-(2-chloro-6-fluorophenyl)prop-1-en-1-yl)-6-((3-(trifluoromethyl)phe-nyl)sulfonyl)-1,2,4,4a,5,6-hexa-hydro-3H-pyrazino[1,2-a]quinox-alin-3-yl)acetate], on RORγt, the EC50 amounted to 0.283 µM and the “Cellular Reporter Assay Amax” value was found to be 1.9. At RORγt-LBD, the EC50 is 0.0107 µM and the “TR-FRET Biochemical Amax” value was 0.67.

In the case of `CS(=O)(=O)N1CCN2c3ccc(/C=C/c4c(Cl)cccc4C(F)(F)F)cc3N(S(=O)(=O)c3cccc(C(F)(F)F)c3)C[C@@H]2C1` [Example 17, (S,E)-8-(2-chloro-6-(tri-fluoromethyl)styryl)-3-(methylsulfonyl)-6-((3-(trifluoromethyl)phenyl)sulfonyl)-2,3,4,4a,5,6-hexahydro-1H-pyrazino [1,2-a]quinoxaline], on RORγt, the EC50 came to 0.603 µM and the “Cellular Reporter Assay Amax” value is 4.2. For the same compound, at RORγt-LBD, the EC50 came out at 0.0296 µM and the “TR-FRET Biochemical Amax” value came to 0.82.

`CCOC(=O)C(=O)N1CCN2c3ccc(/C=C/c4c(Cl)cccc4C(F)(F)F)cc3N(S(=O)(=O)c3cccc(C(F)(F)F)c3)C[C@@H]2C1` [Example 58, ethyl (S,E)-2-(8-(2-chloro-6-(trifluoromethyl)styryl)-6-((3-(trifluoromethyl)phenyl)sulfonyl)-1,2,4,4a,5,6-hexahydro-3H-pyrazino[1,2-a]quinoxalin-3-yl)-2-oxoacetate]: at RORγt, the EC50 was found to be 1.4 µM and the “Cellular Reporter Assay Amax” value came to 4.0. For the same compound, at RORγt-LBD, the EC50 stood at 0.0194 µM and the “TR-FRET Biochemical Amax” value came out at 0.79.

Turning to `C/C(=C\c1ccc2c(c1)N(S(=O)(=O)c1cccc(C(F)(F)F)c1)C[C@@H]1CN(C(C)(C)C(=O)OC(C)(C)C)CCN21)c1c(F)cccc1Cl` [Example 53, tert-butyl (S,E)-2-(8-(2-(2-chloro-6-fluorophenyl)prop-1-en-1-yl)-6-((3-(trifluoromethyl)phe-nyl)sulfonyl)-1,2,4,4a,5,6-hexahydro-3H-pyrazino[1,2-a]qui-noxalin-3-yl)-2-methylpropanoate], the EC50 at RORγt is no less than 50 µM. Further, at RORγt-LBD, the EC50 came out at 0.256 µM and the “TR-FRET Biochemical Amax” value was found to be 0.55.

On to `CC(C)(C)OC(=O)C(C)(C)N1CCN2c3ccc(-c4cc(F)cc(OC(F)F)c4)cc3N(S(=O)(=O)c3cccc(C(F)(F)F)c3)C[C@@H]2C1` [Example 51, tert-butyl (S)-2-(8-(3-(difluoromethoxy)-5-fluorophenyl)-6-((3-(trifluoromethyl)phenyl)sulfonyl)-1,2,4,4a,5,6-hexahydro-3H-pyrazino[1,2-a]quinoxalin-3-yl)-2-methylpropanoate], for which, at RORγt, the EC50 turned out to be 3.94 µM and the “Cellular Reporter Assay Amax” value was determined as 1.5. Besides, at RORγt-LBD, the EC50 amounted to 0.0487 µM and the “TR-FRET Biochemical Amax” value is listed as 0.77.

With `C/C(=C\c1ccc2c(c1)N(S(=O)(=O)c1cccc(C(F)(F)F)c1)C[C@@H]1CN(CC(=O)OCOC(=O)OC(C)C)CCN21)c1c(F)cccc1Cl` [Example 49, ((isopropoxycarbonyl)oxy)methyl (S,E)-2-(8-(2-(2-chloro-6-fluorophenyl)prop-1-en-1-yl)-6-((3-(trifluoromethyl)phenyl)sulfonyl)-1,2,4,4a,5,6-hexahydro-3H-pyrazino[1,2-a]quinoxalin-3-yl)acetate], on RORγt, the EC50 turned out to be 0.238 µM and the “Cellular Reporter Assay Amax” value is recorded as 5.2. For the same compound, at RORγt-LBD, the EC50 worked out at 0.00547 µM and the “TR-FRET Biochemical Amax” value was determined as 0.61.

Consider `O=C(O)CN1CCN2c3ccc(-c4cc(F)cc(OC(F)F)c4)cc3N(S(=O)(=O)C3C=C(C(F)(F)F)C=NC3=O)C[C@@H]2C1` (stereo partly drawn) [Example 92, 2-((4aS)-8-(3-(difluoromethoxy)-5-fluorophenyl)-6-((2-oxo-5-(trifluoromethyl)-2,3-dihydropyridin-3-yl)sulfonyl)-1,2,4,4a,5,6-hexahydro-3H-pyrazino[1,2-a]quinoxalin-3-yl)acetic acid], for which the EC50 on RORγt is no less than 50 µM; at RORγt-LBD, 0.848 µM.

As to `C/C(=C\c1ccc2c(c1)N(S(=O)(=O)c1cccc(C(F)(F)F)c1)C[C@@H]1CN(S(N)(=O)=O)CCN21)c1c(F)cccc1Cl` [Example 66, (R,E)-8-(2-(2-chloro-6-fluorophenyl)prop-1-en-1-yl)-6-((3-(trifluoromethyl)phenyl)sulfonyl)-1,2,4,4a,5,6-hexahydro-3H-pyrazino[1,2-a]quinoxaline-3-sulfonamide], on RORγt, the EC50 amounted to 0.523 µM and the “Cellular Reporter Assay Amax” value was 5.6. Also, on RORγt-LBD, the EC50 turned out to be 0.0336 µM and the “TR-FRET Biochemical Amax” value is 0.99.

Turning to `O=C(O)COC1CCN2c3ccc(-c4cc(F)cc(OC(F)F)c4)cc3N(S(=O)(=O)c3cccc(C(F)(F)F)c3)C[C@@H]2C1` (stereo partly drawn) [Example 106, 2-(((6aS)-3-(3-(difluoromethoxy)-5-fluorophenyl)-5-((3-(trifluoromethyl)phenyl)sulfonyl)-6,6a,7,8,9,10-hexahydro-5H-pyrido[1,2-a]quinoxalin-8-yl)oxy)acetic acid], at RORγt, the EC50 came to 0.704 µM and the “Cellular Reporter Assay Amax” value came out at 4.1. Moreover, at RORγt-LBD, the EC50 was 0.0725 µM and the “TR-FRET Biochemical Amax” value is reported as 0.48.

As for `N#CC1(N2CCN3c4ccc(/C=C/c5c(Cl)cccc5C(F)(F)F)cc4N(S(=O)(=O)c4cccc(C(F)(F)F)c4)C[C@@H]3C2)CCC1` [Example 78, (S,E)-1-(8-(2-chloro-6-(trifluoro-methyl)styryl)-6-((3-(trifluoro-methyl)phenyl)sulfonyl)-1,2,4,4a,5,6-hexahydro-3H-pyra-zino[1,2-a]quinoxalin-3-yl)cyclo-butane-1-carbonitrile], at RORγt, the EC50 came out at 0.822 µM and the “Cellular Reporter Assay Amax” value is recorded as 2.4. In addition, at RORγt-LBD, the EC50 worked out at 0.0052 µM and the “TR-FRET Biochemical Amax” value was determined as 0.67.

The values above are taken from patent US20220009894A1, “1,2,3,4-TETRAHYDROQUINOXALINE DERIVATIVE, PREPARATION METHOD THEREFOR AND APPLICATION THEREOF” (Abbisko Therapeutics Co., Ltd., priority 2019, published 2022).
